Measured values published in PubChem BioAssay (NCI).
Values joined by “and” are separate entries in the source; they are usually repeats but may differ in a detail not shown here. Identical values can stand only once.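 Five concentrations, 48 hours, 96-well plates. GI50: concentration for 50% inhibition of growth. TGI is the concentration that stops growth completely.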

What was measured:
Assay in all cases: DTP human tumour cell line panel, 48 h
HOP-92 NSCLC = tested on: HOP-92 NSCLC
OVCAR-3 ovarian = tested on: OVCAR-3 ovarian
OVCAR-5 ovarian = tested on: OVCAR-5 ovarian
HCT-116 colon = tested on: HCT-116 colon
NCI-H460 lung = tested on: NCI-H460 lung
OVCAR-8 ovarian = tested on: OVCAR-8 ovarian
SNB-75 CNS = tested on: SNB-75 CNS
UACC-62 melanoma = tested on: UACC-62 melanoma
HT29 colon = tested on: HT29 colon
RPMI-8226 leukemia = tested on: RPMI-8226 leukemia

Structure (SMILES)	GI50 (HOP-92 NSCLC)	TGI (HOP-92 NSCLC)	GI50 (OVCAR-3 ovarian)	TGI (OVCAR-3 ovarian)	GI50 (OVCAR-5 ovarian)	TGI (OVCAR-5 ovarian)	GI50 (HCT-116 colon)	TGI (HCT-116 colon)	GI50 (NCI-H460 lung)	TGI (NCI-H460 lung)	GI50 (OVCAR-8 ovarian)	TGI (OVCAR-8 ovarian)	GI50 (SNB-75 CNS)	TGI (SNB-75 CNS)	GI50 (UACC-62 melanoma)	TGI (UACC-62 melanoma)	TGI (HT29 colon)	TGI (RPMI-8226 leukemia)	GI50 (HT29 colon)	GI50 (RPMI-8226 leukemia)
CCn1cc(C(=O)N/N=C/c2ccccc2)c(=O)c2cc(F)c(N3CCNC(C)C3)c(F)c21 (stereo not drawn)	1.19 µM	2.46 µM	1.82 µM	3.3 µM	1.64 µM	3.05 µM														
COc1ccc(-c2nc(/C=N/Nc3cc(C)nc4ccc(Cl)cc34)c(C)o2)cc1	1.5 µM	2.98 µM	1.81 µM	3.27 µM	1.68 µM	3.07 µM	1.82 µM	3.27 µM	1.85 µM	3.49 µM	1.89 µM	3.91 µM	1.44 µM	2.93 µM	1.8 µM	3.37 µM				
C1=CC=C2NCCCCCCCNC3=CC=CC=CC3=NCCCCCCCN=C2C=C1		98.6 µM				> 100 µM		> 100 µM		> 100 µM		> 100 µM		67.9 µM			> 100 µM	> 100 µM		
CCC1CN2C(=N1)c1ccccc1-c1cc(Cl)ccc12 (stereo not drawn)			3.48 µM	9.9 µM	4.48 µM	29.6 µM	2.53 µM	10.6 µM	2.15 µM	10.5 µM	3.32 µM	18.4 µM	3.73 µM	16 µM	1.76 µM	5.17 µM	7.11 µM		2.01 µM	
O=C(O/C(=C(/N=Nc1ccccc1)c1ccccc1)c1ccccc1)c1ccccc1		> 100 µM				> 100 µM		> 100 µM		> 100 µM		> 100 µM		> 100 µM		> 100 µM	> 100 µM	> 100 µM		
O=C1c2cccc(NCCN=Cc3cc([N+](=O)[O-])ccc3O)c2C(=O)c2c(NCCN=Cc3cc([N+](=O)[O-])ccc3O)cccc21	3.03 µM	84.1 µM	4.79 µM	72 µM	31.6 µM	> 100 µM	1.28 µM	81.5 µM			2.55 µM	> 100 µM	2.16 µM	19 µM	33 µM	> 100 µM	> 100 µM	4.35 µM	1.26 µM	1.03 µM
COc1ccc2c(c1)nnn1c3ncccc3c(N=O)c21	0.0424 µM and 0.117 µM		1.11 µM and 2.41 µM	5.18 µM and 7.68 µM	8.02 µM and 4.57 µM	23.2 µM and > 100 µM	0.06 µM	0.91 µM	1.67 µM and 2.19 µM	8.12 µM and 7.8 µM	0.389 µM and 0.517 µM	21.4 µM and 3.73 µM			0.853 µM and 2.56 µM	7.81 µM and 13.9 µM		1.44 µM and 7.64 µM	0.622 µM and 1.2 µM	0.261 µM and 1.08 µM
CC(C)CCCC(C)[C@H]1CCC2[C@@H]3CCC4Nc5nocc5C[C@]4(C)C3CC[C@@]21C (stereo partly drawn)				20.5 µM				32.4 µM		47.1 µM		35.9 µM		33.8 µM		40.7 µM	37.1 µM	69.3 µM		
COc1cccc2c1C(=O)c1c(O)c3c(c(O)c1C2=O)CC(O)(C(O)CO)CC3OC1CC(N2CCOCC2)C(O)C(C)O1 (stereo not drawn)	0.0188 µM	0.0652 µM	0.0323 µM		0.0331 µM	0.0926 µM and 0.0935 µM		0.143 µM				0.0281 µM		0.0131 µM and 0.0549 µM				0.147 µM and 0.486 µM		0.0191 µM
CCC(C)[C@H]1O[C@]2(C=C[C@@H]1C)C[C@@H]1C[C@@H](C/C=C(\C)[C@@H](OC3C[C@H](OC)C(O[C@H]4C[C@H](OC)[C@@H](O)[C@H](C)O4)[C@H](C)O3)[C@@H](C)/C=C/C=C3\CO[C@@H]4[C@H](O)C(C)=C[C@@H](C(=O)O1)[C@]34O)O2 (stereo partly drawn)	0.65 µM	1.41 µM	0.904 µM	1.66 µM	2.06 µM	7.86 µM	0.752 µM	1.53 µM			1.72 µM	9.73 µM	2.74 µM	9.09 µM	1.53 µM	7.64 µM	1.78 µM	50 µM	0.857 µM	1.58 µM
COCC(O)Cn1ccnc1[N+](=O)[O-] (stereo not drawn)				> 100 µM		> 100 µM		> 100 µM		> 100 µM		> 100 µM					> 100 µM	> 100 µM		
OCC1C(/C=C/c2ccoc2)ON2CCCC12 (stereo not drawn)						> 100 µM				> 100 µM		> 100 µM		> 100 µM			> 100 µM			
COc1ccc(-c2nc(-c3ccccc3)c(-c3ccccc3)[nH]2)cc1OC1CCCC1			> 100 µM	> 100 µM	> 100 µM	> 100 µM	> 100 µM	> 100 µM	> 100 µM	> 100 µM	> 100 µM	> 100 µM	> 100 µM	> 100 µM	> 100 µM	> 100 µM	> 100 µM	> 100 µM	30.8 µM	38.1 µM
C[C@]12CCC(=O)C=C1CC[C@@H]1C2CC[C@]2(C)Nc3c(cnn3-c3ccccc3)CC12 (stereo partly drawn)				> 10 µM		> 100 µM		> 100 µM		> 100 µM		> 100 µM		> 100 µM		> 100 µM	> 100 µM	> 100 µM		
Cc1cc(C(=C2C=CC(=Nc3ccccc3)C=C2)c2ccc(Nc3ccccc3)cc2)ccc1N	0.475 µM	1.73 µM	0.293 µM	0.876 µM	0.245 µM	0.671 µM	0.287 µM	1.02 µM	0.223 µM	0.532 µM	0.254 µM	0.913 µM	0.598 µM	2.22 µM	0.25 µM	0.796 µM	0.302 µM		0.164 µM	
C=CCNC(=O)N(CCCC(NC(C)=O)C(=O)NCc1ccccc1)Cc1ccccc1 (stereo not drawn)		> 100 µM		> 100 µM		> 100 µM				> 100 µM		> 100 µM		> 100 µM		> 100 µM	> 100 µM	> 100 µM		
O=C1NC2(CCCCCC2)C2CCCCCCC12O (stereo not drawn)		> 100 µM		> 100 µM		> 100 µM		> 100 µM		> 100 µM		> 100 µM		> 100 µM		> 100 µM	> 100 µM			
Cc1cc(NCCCCCCNc2cc(C)nc3cc(N(C)C)ccc23)c2ccc(N(C)C)cc2n1				> 100 µM		> 100 µM		> 100 µM		> 100 µM		> 100 µM		> 100 µM		21.4 µM	> 100 µM			
